Earlier results as cited in patent publication US20230310343A1 (priority 2020, published 2023).
Where two headings read alike, the source gives them in different places.

Tests used:
[1] = system: infectious bronchitis virus (IBV)
[2] = system: herpes simplex virus 1 (HSV-1); conditions: for selectivity index: HSV-1; for reduction of viral multiplication: HSV-1-infected cells
[3] = molecular target: N-terminus of the N protein (Avian infectious bronchitis virus, UniProt P69596); conditions: IBV N protein
Sequence of N-terminus of the N protein (P69596 31-156 limits assumed): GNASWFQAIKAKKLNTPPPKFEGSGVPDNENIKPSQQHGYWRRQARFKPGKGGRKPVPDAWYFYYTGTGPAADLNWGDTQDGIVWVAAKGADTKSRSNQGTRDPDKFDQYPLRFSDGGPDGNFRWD

[4] = system: influenza (H1N1) virus
[5] = molecular target: hemagglutinin (Influenza A virus, UniProt P03452)
Sequence of hemagglutinin (P03452 18-342 limits assumed): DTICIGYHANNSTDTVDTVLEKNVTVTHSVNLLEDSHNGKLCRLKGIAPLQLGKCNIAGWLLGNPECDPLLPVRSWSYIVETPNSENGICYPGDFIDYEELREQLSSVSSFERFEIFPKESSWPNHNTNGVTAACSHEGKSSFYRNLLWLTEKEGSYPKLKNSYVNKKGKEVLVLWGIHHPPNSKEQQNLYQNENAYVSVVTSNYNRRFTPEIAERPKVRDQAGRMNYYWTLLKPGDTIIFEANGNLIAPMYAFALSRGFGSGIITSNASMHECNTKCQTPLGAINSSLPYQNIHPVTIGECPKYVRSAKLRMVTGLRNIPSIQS
Sequence of hemagglutinin (P03452 344-565 limits assumed): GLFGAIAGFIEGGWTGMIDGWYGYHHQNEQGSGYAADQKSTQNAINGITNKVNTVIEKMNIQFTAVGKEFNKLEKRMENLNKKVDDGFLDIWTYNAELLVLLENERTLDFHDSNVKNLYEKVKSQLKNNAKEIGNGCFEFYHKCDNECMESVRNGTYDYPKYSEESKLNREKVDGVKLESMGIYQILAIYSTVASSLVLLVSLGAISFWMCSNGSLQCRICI

[6] = after penetration of the virus into the cell
[7] = before the virus has entered the cell

In the case of `CC1=CCC2CC1C2(C)C` (stereo not drawn) [alpha-pinene], the “reducing/inhibiting IBV replication” value [1] is given as “inhibit viral replication”.
In the case of `C=C1CCC2CC1C2(C)C` (stereo not drawn) [beta-pinene], the “reducing/inhibiting IBV replication” value [1] is given as “inhibit viral replication”.
In the case of `CC12CCC(CC1)C(C)(C)O2` [cineole, 1,8-cineole], the “reducing/inhibiting IBV replication” value [1] is listed as “highly effective”, the “inhibition of IBV” value [1, 6] is listed as “fully effective” and the “inhibition of IBV” value [1, 7] is listed as “moderate effectiveness”. The selectivity index [2] was “low”, the “reduction of viral multiplication” value [2] was “significantly reduce viral multiplication” and the “binding to the N-terminus of the N protein” value [3] was “binds securely”.
For `CC(C)=CCC/C(C)=C/C=O` [citrol], the “reduction of viral multiplication” value [2] is listed as “significantly reduce viral multiplication”.
For `CC(C)=CCCC(C)CCO` (stereo not drawn) [citronellol], the “effectiveness against influenza (H1N1)” value ([4]; liquid phase) is given as “only partially effective” and the “effectiveness against influenza (H1N1)” value ([4]; vapor phase) is given as “effective”.
For `Cc1ccc(C(C)C)cc1` [cymene], the “reduction of viral multiplication” value [2] is listed as “significantly reduce viral multiplication”.
For `C=CCc1ccc(O)c(OC)c1` [eugenol], the “effectiveness against influenza (H1N1)” value ([4]; liquid phase) is listed as “effective”, the plaque reduction ([4]; liquid phase) is listed as “one hundred” and the “effectiveness against influenza (H1N1)” value ([4]; vapor phase) is listed as “effective”.
In the case of `CC1=CCC(O)(C(C)C)CC1` (stereo not drawn) [terpinen-4-ol], the “reduction of viral multiplication” value [2] is listed as “significantly reduce viral multiplication”.
In the case of `Cc1ccc(C(C)C)c(O)c1` [thymol], the selectivity index [2] is given as “low” and the “reduction of viral multiplication” value [2] is given as “significantly reduce viral multiplication”.
In the case of pinene, the “inhibition of hemagglutinin activity” value [5] is listed as “able to inhibit”, the “inhibition of IBV” value [1, 6] is listed as “fully effective” and the “inhibition of IBV” value [1, 7] is listed as “moderate effectiveness”. For the same compound, the “reduction of viral multiplication” value [2] was “significantly reduce viral multiplication” and the “binding to the N-terminus of the N protein” value [3] was “binds to the N-terminus of the N protein”.
For terpinene, the “reduction of viral multiplication” value [2] is listed as “significantly reduce viral multiplication”.
